Measured values reported in the supplement of paper PMC10307832.

What was measured:
Assay in all cases: relative viability (nuclei count vs DMSO), 5 days (fraction); higher = more cells survive
[1] = system: LCLC-97TM1
Method in brief: (§1)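 Lung cancer cell lines in 1536-well plates were dosed by pin tool the day after seeding, either with one drug alone or with a fixed anchor-drug dose plus five library-drug doses (not always all listed) in √10 steps. After 5 days, cells were fixed and their nuclei stained in one step (final 0.05% Triton X-100, 1% formaldehyde, 1 ug/ml Hoechst), then counted on 4× images. Relative viability is the nuclei count in treated wells divided by that in vehicle wells. Values are medians of duplicate plates.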

[2] = system: NCI-H2126
Method in brief: as §1

[3] = system: NCI-H1915
Method in brief: as §1

[4] = system: LC-2-ad
Method in brief: as §1

[5] = system: NCI-H2347
Method in brief: as §1

[6] = system: NCI-H1666
Method in brief: as §1

[7] = system: EPLC-272H
Method in brief: as §1

[8] = system: PC-14
Method in brief: as §1

[9] = system: NCI-H2405
Method in brief: as §1

[10] = system: ChaGo-K-1
Method in brief: as §1

[11] = system: RERF-LC-KJ
Method in brief: as §1

[12] = system: HCC-78
Method in brief: as §1

## NC(=O)Nc1cc(-c2cccc(F)c2)sc1C(=O)N[C@H]1CCCNC1 [AZD7762] + CC(C)C[C@H](NC(=O)[C@H](Cc1ccccc1)NC(=O)c1cnccn1)B(O)O [Bortezomib] (partner 0.002 µM)
[1]; first compound 0.01 µM
  relative viability: 0.767
[1]; first compound 0.03162 µM
  relative viability: 0.822
[1]; first compound 0.1 µM
  relative viability: 0.737
[1]; first compound 0.3162 µM
  relative viability: 0.335
[1]; first compound 1 µM
  relative viability: 0.634
[2]; first compound 0.01 µM
  relative viability: 1.06
[2]; first compound 0.03162 µM
  relative viability: 1.11
[2]; first compound 0.1 µM
  relative viability: 1.18
[2]; first compound 0.3162 µM
  relative viability: 1.2
[2]; first compound 1 µM
  relative viability: 1.07
[3]; first compound 0.01 µM
  relative viability: 0.989
[3]; first compound 0.03162 µM
  relative viability: 0.99
[3]; first compound 0.1 µM
  relative viability: 1.03
[3]; first compound 0.3162 µM
  relative viability: 1.02
[3]; first compound 1 µM
  relative viability: 0.959
[4]; first compound 0.01 µM
  relative viability: 1.04
[4]; first compound 0.03162 µM
  relative viability: 1.14
[4]; first compound 0.1 µM
  relative viability: 0.975
[4]; first compound 0.3162 µM
  relative viability: 0.909
[4]; first compound 1 µM
  relative viability: 0.732
[5]; first compound 0.01 µM
  relative viability: 1.1
[5]; first compound 0.03162 µM
  relative viability: 0.967
[5]; first compound 0.1 µM
  relative viability: 0.863
[5]; first compound 0.3162 µM
  relative viability: 1.17
[5]; first compound 1 µM
  relative viability: 0.685
[6]; first compound 0.01 µM
  relative viability: 0.906
[6]; first compound 0.03162 µM
  relative viability: 0.906
[6]; first compound 0.1 µM
  relative viability: 1.13
[6]; first compound 0.3162 µM
  relative viability: 0.848
[6]; first compound 1 µM
  relative viability: 0.688
[7]; first compound 0.01 µM
  relative viability: 0.81
[7]; first compound 0.03162 µM
  relative viability: 1.01
[7]; first compound 0.1 µM
  relative viability: 1.02
[7]; first compound 0.3162 µM
  relative viability: 0.828
[7]; first compound 1 µM
  relative viability: 0.992
[8]; first compound 0.01 µM
  relative viability: 0.848
[8]; first compound 0.03162 µM
  relative viability: 0.925
[8]; first compound 0.1 µM
  relative viability: 0.932
[8]; first compound 0.3162 µM
  relative viability: 0.662
[8]; first compound 1 µM
  relative viability: 0.357
[9]; first compound 0.01 µM
  relative viability: 0.933
[9]; first compound 0.03162 µM
  relative viability: 0.982
[9]; first compound 0.1 µM
  relative viability: 0.963
[9]; first compound 0.3162 µM
  relative viability: 0.943
[9]; first compound 1 µM
  relative viability: 0.796
[10]; first compound 0.01 µM
  relative viability: 0.861
[10]; first compound 0.03162 µM
  relative viability: 1.01
[10]; first compound 0.1 µM
  relative viability: 0.961
[10]; first compound 0.3162 µM
  relative viability: 0.958
[10]; first compound 1 µM
  relative viability: 0.865
[11]; first compound 0.01 µM
  relative viability: 1.16
[11]; first compound 0.03162 µM
  relative viability: 1.11
[11]; first compound 0.1 µM
  relative viability: 1.11
[11]; first compound 0.3162 µM
  relative viability: 1.11
[11]; first compound 1 µM
  relative viability: 1.14
[12]; first compound 0.01 µM
  relative viability: 0.561
[12]; first compound 0.03162 µM
  relative viability: 0.528
